Read-outs that look alike come from different tables or passages of the source.
Experiments:
[1] = system: T98G human glioblastoma cell line; assay: Antiproliferative assay (MTS), GI50 in T98G cells; type: cell-based
Source text: General methods are known for determining the effect of compounds on proliferation of cells. See, e.g., Zhu et al., J. Med. Chem., 2006, 49, 2063-2076. Cells can be selected by one of skill in the art and can be maintained as exponentially growing cultures in a suitable medium (e.g., RPMI 1640 medium) with adjuvents, including FBS, penicillin, and glutamine, provided at levels known to those skilled in this field. For human cancer cells, e.g., human glioblastoma cell line T98G, the cells can be trypsinized and washed prior to formation of a cell suspension in appropriate buffer and plating of the cell suspension. Typical microtiter plate amounts can be 500-2000 cells/well. The cells can be allowed to attach and grow for a defined time period (e.g., 36 hours, 72 hours, 96 hours, or other defined period) before treatment with either vehicle (e.g., dimethylsulfoxide) or test agent (e.g., compound of the invention) followed by an additional defined time period (e.g., 36 hrs, 72 hrs, 96 hrs, and the like). At the end of the additional defined time period, viability of the cells can be determined by any of a variety of methods known in the art, including assays employing MTS (3-(4,5-dimethylthiazol-2-yl)-5-(3-carboxymethoxyphenyl)-2-(4-sulfophenyl)-2H-tetrazolium), as described by -Cory et al., Cancer Commun., 1991, 3, 207-212. […] Replicates are typically assayed to allow determination of appropriate statistical properties as known in the art.
Compounds of the invention with structures of Formulae Xa, XVb, and XVa were assayed for inhibition of growth of the T98G human glioblastoma cell line (Table II).
Human glioblastoma T98G cells (American Type Culture Collection, Manassas, Va.) were maintained as exponentially growing cultures in an RPMI 1640 medium with 10% FBS, 1% penicillin and 1% glutamine. The cells were seeded into 96-well plates and allowed to attach and grow for 48 hours. One plate of cells was used for a time zero cell number determination (N=16), and cells in other plates were treated for 72 hours or 96 hours with either DMSO (1% v/v; N=8 for each plate) or a range of concentrations, in quadruplicate, of test agents. Cell number was determined spectrophotometrically at 490 nm minus absorbance at 630 nm after exposure to 3-(4,5-dimethylthiazol-2-yl)-5-(3-carboxymethoxyphenyl)-2-(4-sulfophenyl)-2H-tetrazolium (MTS) and N-methylphenazine methylsulfate. The fifty percent growth inhibitory concentrations (GI50) of test agents were calculated from the spectrophotometrically determined growth of the control cells over the 72- or 96-hour period.

bovine brain tubulin = assay: Inhibition of GTP-induced tubulin assembly (turbidimetry at 350 nm); type: biochemical; conditions: after 20 min at 30° C., 10 μM bovine brain tubulin, 0.8 M monosodium glutamate
Description: Bovine brain tubulin was isolated to electrophoretic homogeneity from fresh brains via methodology described by Hamel and Lin, Biochemistry 23: 4173-84 (1984). Tubulin (final concentration 10 μM; 1 mg/mL) was preincubated with test agents dissolved in DMSO (4% v/v final concentration) and monosodium glutamate (0.8 M final concentration, pH 6.6) for 15 minutes at 30° C. The reaction mixture was cooled to 0° C., and GTP (0.4 mM final concentration) was added. Reaction mixtures were transferred to cuvettes held at 2.5° C. in a Beckmann DU 7400 multichannel, temperature-controlled (Peltier unit) spectrophotometer, reading absorbance (turbidity) at 350 nm in each cuvette every 15 seconds. Baselines were established and temperature was quickly raised to 30° C. (in approximately 1 minute). After 20 minutes, the temperature was returned to 2.5° C. The turbidity value after 20 minutes at 30° C. for GTP alone was assigned as 100% assembly, and for DMSO alone as 0% assembly. The IC50 was calculated by linear regression of the percent assembly values at the same time point obtained with 0.625, 1.25, 2.5, 5, 10 and 20 μM test agent. In experiments to test for disassembly of preformed tubulin polymer, the test agent was added after 7 minutes of GTP-induced assembly.

[2] = system: bovine brain tubulin (vinca domain); assay: Inhibition of [3H]vinblastine binding to tubulin (centrifugal gel filtration); conditions: 10 μM radiotracer, 10 μM tubulin; for % Inhibition of [3H]vinblastine binding by 5 μM test agent: 30 min room temperature; for IC50: test agent 0.5-100 μM, Hill fit
Description: (§1) The new compounds were tested for their abilities to bind at the vinca domain and at the related peptide/depsipeptide site on tubulin using a modification of a centrifugal gel filtration method described by Bai et al., Mol. Pharmacol. 7: 965-76 (1995). In the initial screens, each 0.32 mL reaction mixture contained 5 μM test agent and 10 μM [^3H]vinblastine (specific activity 8.50 Ci/mmol; GE Healthcare Bio-Sciences, Picataway, N.J.) or 10 μM [^3H]dolastatin 10 (specific activity 1.96 Ci/mmol; obtained from the Drug Synthesis and Chemistry Branch of the National Cancer Institute) predissolved in DMSO (final concentration 1% v/v) and 10 μM bovine brain tubulin, all in 0.1 M 2-(4-morpholino)ethanesulfonic acid (Mes), pH 6.9, containing 0.5 mM MgCl2. The mixture was incubated for 30 min at room temperature. Two 0.15 mL aliquots of the reaction mixture were applied to duplicate 2 mL beds of pre-swollen (in Mes, pH 6.9, containing 0.5 mM MgCl2) Sephadex G-50 (superfine) contained in Handee columns (Pierce Biotechnology, Rockford, Ill.). The columns were centrifuged at 800×g for 4 minutes and the protein concentration in the effluent was determined, using the bicinchoninic acid assay. The amount of radiolabeled ligand bound to tubulin was determined using scintillation spectrometry. Each value represents the mean ±SD of four determinations. […] Inhibition was calculated as the percent difference relative to that of the control incubation with DMSO (i.e., without test agent—assigned as 0% inhibition). […] GraphPad Prism was used to fit the resulting data to the Hill equation to determine the IC50 values.

[3] = system: HeLa human cervical carcinoma cells; assay: High-content analysis of mitotic arrest in HeLa cells; type: cell-based; conditions: for Microtubule Density MDEC (minimum detectable effective concentration) / Mitotic Index MDEC (percentage of phosphohistone H3-positive cells) / Nuclear Condensation MDEC (minimum detectable effective concentration) / EC50: 20 hours treatment, average of four experiments ± SD; for EC50: Homo sapiens, read-out: Cell Density EC50; for activity in high-content analysis of mitotic arrest (in words): all endpoints measured
Description: The effects of tubulysin analogs on mitotic arrest and cellular microtubules were studied. HeLa human cervical carcinoma cells (10,000 per well) were plated in collagen-1 coated 384-well microplates and were treated with vehicle (DMSO) or ten two-fold concentration gradients of test agents within 4-6 hours of seeding. Cells were incubated for 20 hours at 37° C., fixed with formaldehyde, and labeled with 10 μg/mL Hoechst 33342 in Hank's balanced salt solution (HBSS). Cells were permeabilized with 0.5% (w/w) Triton X-100 for 5 min at room temperature and incubated with a primary antibody cocktail consisting of an HBSS solution containing rabbit polyclonal anti-phosphohistone H3 (Ser10, 1:500, Upstate), and mouse monoclonal anti-α-tubulin (1:3000, Sigma), followed by a mixture of FITC-labeled donkey anti-mouse IgG (1:500) and Cy3-labeled donkey anti-rabbit IgG (1:500). Cells were rinsed once with HBSS and stored at 4° C. in HBSS until analysis.
Microplates were analyzed with an ArrayScanII instrument (Cellomics, Pittsburgh, Pa.) using the Target Activation Bioapplication (Cellomics, Inc.). Within the application, 1,000 individual cells in each well were imaged at three different wavelengths, using an Omega XF93 filter set at excitation/emission wavelengths of 350/461 nm (Hoechst), 494/519 nm (FITC), and 556/573 nm (Cy3). The following parameters were used for data analysis: average nuclear intensity, nuclei per field, average nuclear FITC intensity, and average nuclear Cy3 intensity. A nuclear mask was generated from Hoechst 33342-stained nuclei. Microtubule density and histone H3 phosphorylation were measured in the FITC and Cy3 channel, respectively. Microtubule density was defined as the average green (FITC) pixel intensity in an area defined by the nuclear mask. For determination of mitotic index and nuclear condensation, thresholds for Hoechst 33342 and phosphohistone-H3 intensities were defined as the average Hoechst 33342 or Cy3 intensity plus one standard deviation from twenty-eight vehicle-treated wells placed in the center of the microplate.
Cells were classified as positive if their average Hoechst 33342 or Cy3 intensity exceeded this threshold. To illustrate visually the effects of test agents on cellular microtubules and mitotic arrest, the identical 384-well plates then were used to acquire higher resolution images of selected wells.
Asynchronously growing HeLa cells were treated for 20 hours with each compound in collagen-coated 384 well microplates, fixed, and incubated with primary antibodies for tubulin and the mitotic marker protein phosphohistone H3, followed by FITC and Cy3-conjugated secondary antibodies, respectively. Cells were detected by nuclear counterstaining with Hoechst 33342, which also provided information about chromatin condensation and cell density as markers of cell death.

[4] = system: bovine brain tubulin (peptide/depsipeptide site); assay: Inhibition of [3H]dolastatin 10 binding to tubulin (centrifugal gel filtration); conditions: 10 μM radiotracer, 10 μM tubulin; for % Inhibition of [3H]dolastatin 10 binding by 5 μM test agent: 30 min room temperature
Description: as §1

[5] = system: bovine brain tubulin (vinca domain); assay: Inhibition of [3H]vinblastine binding to tubulin (centrifugal gel filtration); conditions: 50 μM test agent
[6] = Homo sapiens, T98G, 72 h (value in parentheses), ±SD, n = 4, Table IV, read-out: GI50 at (72 h) in T98 glioblastoma cells
[7] = Homo sapiens, T98G, 96 h, ±SD, n = 4, Table IV, read-out: GI50 at 96 h in T98 glioblastoma cells

| GI50 [1, 6] [nM] | GI50 [1, 7] [nM] | GI50 ([1]; Homo sapiens, T98G cells, 72 h exposure, Table II, read-out: GI50 in T98G cell, 72 h) [nM] | GI50 ([1]; Homo sapiens, T98G cells, 96 h exposure, Table II, read-out: GI50 in T98G cell, 96 h) [nM] | GI50 ([1]; Homo sapiens, T98G cells, after 72 hrs exposure, read-out: GI50) [nM] | EC50 [3] [nM] | % Inhibition of [3H]dolastatin 10 binding by 5 μM test agent [4] [%] | IC50 ([4]; test agent 0.5-100 μM, Hill fit) [nM] | % Inhibition of [3H]vinblastine binding @50 μM [5] | Compound | GI50 ([1]; 72 h (value in parentheses), ±SD, n = 4, Table IV, read-out: GI50 at (72 h) in T98 glioblastoma cells) [nM] | GI50 ([1]; 96 h, ±SD, n = 4, Table IV, read-out: GI50 at 96 h in T98 glioblastoma cells) [nM] | IC50 (bovine brain tubulin) [nM] | % Inhibition of [3H]vinblastine binding by 5 μM test agent [2] [%] | IC50 [2] [nM] | Microtubule Density MDEC (minimum detectable effective concentration) [3] [nM] | Mitotic Index MDEC (percentage of phosphohistone H3-positive cells) [3] [nM] | Nuclear Condensation MDEC (minimum detectable effective concentration) [3] [nM] | activity in high-content analysis of mitotic arrest (in words) [3] |
| --- | --- | --- | --- | --- | --- | --- | --- | --- | --- | --- | --- | --- | --- | --- | --- | --- | --- | --- |
| – | – | – | – | – | – | – | – | – | CC[C@H](C)[C@@H]([C@@H](CC(=O)N1CCC[C@H]1[C@H](OC)[C@@H](C)C(=O)N[C@@H](Cc1ccccc1)c1nccs1)OC)N(C)C(=O)[C@@H](NC(=O)[C@H](C(C)C)N(C)C)C(C)C [dolastatin 10, reference compound] | 0.1 | 0.056 ± 0.025 | 1400 | 61 ± 1 | 4600 ± 500 | – | – | – | – |
| 24 | 12 ± 7 | 24 ± 9 | 12 ± 7 | ~24 | 11.3 ± 2.7 | – | – | – | CC(=O)O[C@H]1C(=O)[C@@]2(C)[C@H]([C@H](OC(=O)c3ccccc3)[C@]3(O)C[C@H](OC(=O)[C@H](O)[C@@H](NC(=O)c4ccccc4)c4ccccc4)C(C)=C1C3(C)C)[C@]1(OC(C)=O)CO[C@@H]1C[C@@H]2O [paclitaxel, reference compound] | – | – | – | – | – | 7.0 ± 2.9 | 4.2 ± 3.6 | 10.2 ± 8.2 | nanomolar activity |
| 8.6 | 1 ± 0.6 | – | – | – | – | 5 ± 6 | – | – | CC[C@]1(O)C[C@@H]2CN(CCc3c([nH]c4ccccc34)[C@@](C(=O)OC)(c3cc4c(cc3OC)N(C)[C@H]3[C@@](O)(C(=O)OC)[C@H](OC(C)=O)[C@]5(CC)C=CCN6CC[C@]43[C@@H]65)C2)C1 [vinblastine, reference compound] | – | – | 1600 | – | – | – | – | – | – |
| – | – | – | – | – | 19.7 ± 10.7 | 21 ± 5 | 29000 ± 5000 | (@50 μM: 98 ± 1%) | CC[C@]1(O)C[C@H]2CN(CCc3c([nH]c4ccccc34)[C@@](C(=O)OC)(c3cc4c(cc3OC)N(C=O)[C@H]3[C@@](O)(C(=O)OC)[C@H](OC(C)=O)[C@]5(CC)C=CCN6CC[C@]43[C@@H]65)C2)C1 [vincristine, reference compound] | – | – | – | 65 ± 2 | 4400 ± 700 | 10.5 ± 10.1 | 4.1 ± 1.9 | 2.6 ± 2.0 | nanomolar activity |
